Assay results taken from patent publication US8846019B2, “Use of protoberberines as an active substance regulating the pilosebaceous unit” (Sederma, priority 2005, dated 2014).
Like-named read-outs stand apart in the source and are kept apart here. Marks after values point to notes of the source that are not given here.

Legend:
Type in all cases: cell-based
keratinocytes [1] = assay: Toxicity evaluation on keratinocytes, Hoescht (number of cells); settings: for Hoescht % Change: percent of negative controle
keratinocytes [2] = assay: Toxicity evaluation on keratinocytes, MTT (mitochondrial respiration); settings: for MTT % Change: percent of negative controle
keratinocytes [3] = assay: Variation of the incorporation of BrdU, keratinocytes with palmatine or berberine; settings: 48 hours of contact
fibroblasts [4] = assay: Toxicity evaluation on fibroblasts, Hoescht (number of cells); settings: for Hoescht % Change: percent of negative controle
fibroblasts [5] = assay: Toxicity evaluation on fibroblasts, MTT (mitochondrial respiration); settings: for MTT % Change: percent of negative controle
[6] = system: Normal human keratinocytes (KHN); assay: Antiproliferative effect: BrdU incorporation by human keratinocytes (ELISA); settings: for % incorporation of BrdU/control: 48 hours, 10% FCS; for effect on proliferation of keratinocytes (in words): dose-dependent mitotic decrease
Experimental: This test is based on the determination of the cellular growth rate. Cells are cultivated in complete medium enriched in FCS (10%) so as to obtain a population in active growth, Mitotic activity is assessed by the incorporation of a nucleotide base analog in DNA during replication: […] replaces thymidine. With a product slowing mitosis, a decrease in BrdU incorporation in cell DNA is to be expected.
Normal human keratinocytes (KHN) cultured with 10% FCS were incubated in the presence or absence of palmatine, or chelidonine at various concentrations for 48 hours.
After the first 24 hours, BrdU was added to the culture medium and the mitosis marker was allowed to act for 24 hours.
After 48 hours, the cells were lysed and the BrdU incorporation rate was determined by an ELISA method.

[7] = keratinocytes, at the tested concentrations
[8] = keratinocytes, concentration 3.10^E−4%
[9] = keratinocytes, concentration 10^E−3%
[10] = fibroblasts, at the tested concentrations
[11] = fibroblasts, concentration 3.10^E−4%
[12] = fibroblasts, concentration 9.10^E−4%

COc1ccc2cc3[n+](cc2c1OC)CCc1cc2c(cc1-3)OCO2 [BERBERINE, berberine]
effect on the number of keratinocytes (in words) (keratinocytes [1]): a decrease on the number of keratinocytes
change of the mitochondrial respiration (in words) (keratinocytes [2]): engenders a change of the mitochondrial respiration
toxicity on keratinocytes (conclusion in words) (keratinocytes [2]): toxic effect
% Change of the incorporation of BrdU (keratinocytes [3]; concentration 3.10^E−4%): −36%**
% Change of the incorporation of BrdU (keratinocytes [3]; concentration 10^E−3%): −65%**
effect on the number of fibroblasts (in words) (fibroblasts [4]): a decrease on the number of fibroblasts
change of the mitochondrial respiration (in words) (fibroblasts [5]): engenders a change of the mitochondrial respiration
toxicity on fibroblasts (conclusion in words) (fibroblasts [5]): toxic effect on fibroblasts

CN1Cc2c(ccc3c2OCO3)[C@@H]2[C@H]1c1cc3c(cc1C[C@@H]2O)OCO3 [Chelidonine, chelidonine]
% incorporation of BrdU/control ([6]; concentration 3 × 10E−4%): −41%
% incorporation of BrdU/control ([6]; concentration 10E−4%): −31%
% incorporation of BrdU/control ([6]; concentration 10 × 10E−4%): −74%
effect on proliferation of keratinocytes (in words) [6]: inhibit the proliferation of keratinocytes

COc1cc2c(cc1OC)-c1cc3ccc(OC)c(OC)c3c[n+]1CC2 [palmatine]
effect on the number of keratinocytes (in words) (keratinocytes [1]; [7]): does not act on the number of keratinocytes
Hoescht % Change (keratinocytes [1]; [8]): −1 dns %
Hoescht % Change (keratinocytes [1]; [9]): −2 dns %
change of the mitochondrial respiration (in words) (keratinocytes [2]; [7]): does not engender a change of the mitochondrial respiration
MTT % Change (keratinocytes [2]; [8]): 7 dns %
MTT % Change (keratinocytes [2]; [9]): 5 dns %
toxicity on keratinocytes (conclusion in words) (keratinocytes [2]; keratinocytes, with respect to the different results): not toxic
% Change of the incorporation of BrdU (keratinocytes [3]; concentration 3.10^E−4%): −16%**
% Change of the incorporation of BrdU (keratinocytes [3]; concentration 10^E−3%): −21%**
% incorporation of BrdU/control ([6]; concentration 3 × 10E−4%): −35%
% incorporation of BrdU/control ([6]; concentration 10E−4%): −21%
% incorporation of BrdU/control ([6]; concentration 10 × 10E−4%): −58%
effect on proliferation of keratinocytes (in words) [6]: inhibit the proliferation of keratinocytes
effect on the number of fibroblasts (in words) (fibroblasts [4]; [10]): does not act on the number of fibroblasts
Hoescht % Change (fibroblasts [4]; [11]): 1dns %
Hoescht % Change (fibroblasts [4]; [12]): −1 dns %
toxicity on fibroblasts (conclusion in words) (fibroblasts [5]; fibroblasts, MTT and Hoescht): not toxic on fibroblasts
change of the mitochondrial respiration (in words) (fibroblasts [5]; [10]): does not engender a change of the mitochondrial respiration
MTT % Change (fibroblasts [5]; [11]): 0 dns %
MTT % Change (fibroblasts [5]; [12]): −9 dns %
